Assay: MALDI-TOF screening of Ni^2+ dependent hydrolysis in a combinatorial peptide library
Assay type: physicochemical
Conditions: CH3CO-Gly-Ala-Thr-X-His-Z-Lys-Phe-Leu-NH2 library, Ni^2+ 2 mM, pH 8.2, 10 mM Tris, score=24/tm
Method in brief: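 Sublibraries of Ac-Gly-Ala-Ser/Thr-X-His-Z-Lys-Phe-Leu-NH2, randomized at Z and fixed at X, were hydrolyzed at 1 mM total peptide with 2 mM Ni2+ in 10 mM Tris, pH 8.2, at 37 °C or 45 °C. Cleavage was scored visually in MALDI-TOF spectra at 2, 4, 6 and 8 h.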

Substance | hydrolysis score from MALDI-TOF screening (37° C.) | hydrolysis score from MALDI-TOF screening (45° C.)
Ac-GATTHWKFL-NH2 [TTHW] | 0 (a score of 0 if no trace of the product of hydrolysis was seen after 8 hours of incubation) | 0 (a score of 0 if no trace of the product of hydrolysis was seen after 8 hours of incubation)
Ac-GATTHYKFL-NH2 [TTHY] | 0 (a score of 0 if no trace of the product of hydrolysis was seen after 8 hours of incubation) | 0 (a score of 0 if no trace of the product of hydrolysis was seen after 8 hours of incubation)
Ac-GATVHAKFL-NH2 [TVHA] | 0 (a score of 0 if no trace of the product of hydrolysis was seen after 8 hours of incubation) | 0 (a score of 0 if no trace of the product of hydrolysis was seen after 8 hours of incubation)
Ac-GATVHDKFL-NH2 [TVHD] | 0 (a score of 0 if no trace of the product of hydrolysis was seen after 8 hours of incubation) | 0 (a score of 0 if no trace of the product of hydrolysis was seen after 8 hours of incubation)
Ac-GATVHEKFL-NH2 [TVHE] | 0 (a score of 0 if no trace of the product of hydrolysis was seen after 8 hours of incubation) | 0 (a score of 0 if no trace of the product of hydrolysis was seen after 8 hours of incubation)
Ac-GATVHFKFL-NH2 [TVHF] | 0 (a score of 0 if no trace of the product of hydrolysis was seen after 8 hours of incubation) | 0 (a score of 0 if no trace of the product of hydrolysis was seen after 8 hours of incubation)
Ac-GATVHGKFL-NH2 [TVHG] | 0 (a score of 0 if no trace of the product of hydrolysis was seen after 8 hours of incubation) | 0 (a score of 0 if no trace of the product of hydrolysis was seen after 8 hours of incubation)
Ac-GATVHHKFL-NH2 [TVHH] | 0 (a score of 0 if no trace of the product of hydrolysis was seen after 8 hours of incubation) | 0 (a score of 0 if no trace of the product of hydrolysis was seen after 8 hours of incubation)
Ac-GATVHIKFL-NH2 [TVHI] | 0 (a score of 0 if no trace of the product of hydrolysis was seen after 8 hours of incubation) | 0 (a score of 0 if no trace of the product of hydrolysis was seen after 8 hours of incubation)
Ac-GATVHKKFL-NH2 [TVHK] | 0 (a score of 0 if no trace of the product of hydrolysis was seen after 8 hours of incubation) | 0 (a score of 0 if no trace of the product of hydrolysis was seen after 8 hours of incubation)
Ac-GATVHLKFL-NH2 [TVHL] | 0 (a score of 0 if no trace of the product of hydrolysis was seen after 8 hours of incubation) | 0 (a score of 0 if no trace of the product of hydrolysis was seen after 8 hours of incubation)
Ac-GATVHMKFL-NH2 [TVHM] | 0 (a score of 0 if no trace of the product of hydrolysis was seen after 8 hours of incubation) | 0 (a score of 0 if no trace of the product of hydrolysis was seen after 8 hours of incubation)
Ac-GATVHPKFL-NH2 [TVHP] | 0 (a score of 0 if no trace of the product of hydrolysis was seen after 8 hours of incubation) | 0 (a score of 0 if no trace of the product of hydrolysis was seen after 8 hours of incubation)
Ac-GATVHQKFL-NH2 [TVHQ] | 0 (a score of 0 if no trace of the product of hydrolysis was seen after 8 hours of incubation) | 0 (a score of 0 if no trace of the product of hydrolysis was seen after 8 hours of incubation)
Ac-GATVHRKFL-NH2 [TVHR] | 0 (a score of 0 if no trace of the product of hydrolysis was seen after 8 hours of incubation) | 3 (a score of 3 for detection at 8 hours)
Ac-GATVHSKFL-NH2 [TVHS] | 0 (a score of 0 if no trace of the product of hydrolysis was seen after 8 hours of incubation) | 0 (a score of 0 if no trace of the product of hydrolysis was seen after 8 hours of incubation)
Ac-GATVHVKFL-NH2 [TVHV] | 0 (a score of 0 if no trace of the product of hydrolysis was seen after 8 hours of incubation) | 0 (a score of 0 if no trace of the product of hydrolysis was seen after 8 hours of incubation)
Ac-GATVHWKFL-NH2 [TVHW] | 0 (a score of 0 if no trace of the product of hydrolysis was seen after 8 hours of incubation) | 3 (a score of 3 for detection at 8 hours)
Ac-GATVHYKFL-NH2 [TVHY] | 0 (a score of 0 if no trace of the product of hydrolysis was seen after 8 hours of incubation) | 0 (a score of 0 if no trace of the product of hydrolysis was seen after 8 hours of incubation)

Substance | hydrolysis score from MALDI-TOF screening (37° C.) | hydrolysis score from MALDI-TOF screening (45° C.)
Ac-GATWHAKFL-NH2 [TWHA] | 0 (a score of 0 if no trace of the product of hydrolysis was seen after 8 hours of incubation) | 0 (a score of 0 if no trace of the product of hydrolysis was seen after 8 hours of incubation)
Ac-GATWHDKFL-NH2 [TWHD] | 0 (a score of 0 if no trace of the product of hydrolysis was seen after 8 hours of incubation) | 0 (a score of 0 if no trace of the product of hydrolysis was seen after 8 hours of incubation)
Ac-GATWHEKFL-NH2 [TWHE] | 0 (a score of 0 if no trace of the product of hydrolysis was seen after 8 hours of incubation) | 0 (a score of 0 if no trace of the product of hydrolysis was seen after 8 hours of incubation)
Ac-GATWHFKFL-NH2 [TWHF] | 0 (a score of 0 if no trace of the product of hydrolysis was seen after 8 hours of incubation) | 0 (a score of 0 if no trace of the product of hydrolysis was seen after 8 hours of incubation)
Ac-GATWHGKFL-NH2 [TWHG] | 0 (a score of 0 if no trace of the product of hydrolysis was seen after 8 hours of incubation) | 0 (a score of 0 if no trace of the product of hydrolysis was seen after 8 hours of incubation)
Ac-GATWHHKFL-NH2 [TWHH] | 0 (a score of 0 if no trace of the product of hydrolysis was seen after 8 hours of incubation) | 0 (a score of 0 if no trace of the product of hydrolysis was seen after 8 hours of incubation)
Ac-GATWHIKFL-NH2 [TWHI] | 0 (a score of 0 if no trace of the product of hydrolysis was seen after 8 hours of incubation) | 3 (a score of 3 for detection at 8 hours)
Ac-GATWHKKFL-NH2 [TWHK] | 4 (a score of 4 for detection at 6 hours) | 4 (a score of 4 for detection at 6 hours)
Ac-GATWHLKFL-NH2 [TWHL] | 0 (a score of 0 if no trace of the product of hydrolysis was seen after 8 hours of incubation) | 3 (a score of 3 for detection at 8 hours)
Ac-GATWHMKFL-NH2 [TWHM] | 0 (a score of 0 if no trace of the product of hydrolysis was seen after 8 hours of incubation) | 3 (a score of 3 for detection at 8 hours)
Ac-GATWHNKFL-NH2 [TWHN] | 0 (a score of 0 if no trace of the product of hydrolysis was seen after 8 hours of incubation) | 0 (a score of 0 if no trace of the product of hydrolysis was seen after 8 hours of incubation)
Ac-GATWHPKFL-NH2 [TWHP] | 0 (a score of 0 if no trace of the product of hydrolysis was seen after 8 hours of incubation) | 0 (a score of 0 if no trace of the product of hydrolysis was seen after 8 hours of incubation)
Ac-GATWHQKFL-NH2 [TWHQ] | 0 (a score of 0 if no trace of the product of hydrolysis was seen after 8 hours of incubation) | 0 (a score of 0 if no trace of the product of hydrolysis was seen after 8 hours of incubation)
Ac-GATWHRKFL-NH2 [TWHR] | 3 (a score of 3 for detection at 8 hours) | 4 (a score of 4 for detection at 6 hours)
Ac-GATWHSKFL-NH2 [TWHS] | 0 (a score of 0 if no trace of the product of hydrolysis was seen after 8 hours of incubation) | 0 (a score of 0 if no trace of the product of hydrolysis was seen after 8 hours of incubation)
Ac-GATWHTKFL-NH2 [TWHT] | 0 (a score of 0 if no trace of the product of hydrolysis was seen after 8 hours of incubation) | 0 (a score of 0 if no trace of the product of hydrolysis was seen after 8 hours of incubation)
Ac-GATWHVKFL-NH2 [TWHV] | 0 (a score of 0 if no trace of the product of hydrolysis was seen after 8 hours of incubation) | 0 (a score of 0 if no trace of the product of hydrolysis was seen after 8 hours of incubation)
Ac-GATWHWKFL-NH2 [TWHW] | 3 (a score of 3 for detection at 8 hours) | 4 (a score of 4 for detection at 6 hours)
Ac-GATYHAKFL-NH2 [TYHA] | 0 (a score of 0 if no trace of the product of hydrolysis was seen after 8 hours of incubation) | 0 (a score of 0 if no trace of the product of hydrolysis was seen after 8 hours of incubation)
